{"source": "patent US20130251633A1", "about": "“SYSTEMS, METHODS, AND DEVICES FOR ULTRASONIC ASSESSMENT OF CANCER AND RESPONSE TO THERAPY” (The Trustees of Columbia University in the City of New York, priority 2010, published 2013)", "type_in_all_cases": "in vivo, NCR nude mice", "key": {"SK-NEP-1 tumors [1]": {"tested_on": "SK-NEP-1 tumors", "test": "Ultrasound molecular imaging with RGD-microbubbles (relative targeted microbubble adhesion, αvβ3 integrin), SK-NEP-1 tumors", "method": "(§1) The identity of the neuroblastoma cell lines NGP and SK-NEP-1 were verified by STR profiling. The cell lines were stably transfected with FUW-Luciferase plasmid and were selected and maintained in 1 mg/ml neomycin. 1×10^6 cells were injected intrarenally into 4-6 week old NCR female nude mice. The resulting xenografts were monitored for growth using bioluminescence. At a threshold corresponding to 1-2 g, tumors were randomized to control or treatment groups (cohort size 5-8 mice per modality and treatment groups). […] Animals were killed by CO2 inhalation at indicated time points (at day 5 after serial imaging studies, and at days 0, 1, 3, and 5 for control and lectin perfusion analyses). At euthanasia, mice were injected with fluorescein-labeled Lycopersicon esculentum lectin (100 μg/100 μl PBS). Vasculature was fixed by infusing 1% paraformaldehyde. 40-μm sections were cut using a vibratome, and digital images subjected to computer-assisted quantitative analysis of tumor vessel architecture."}, "NGP tumors [2]": {"tested_on": "NGP tumors", "test": "CEUS perfusion imaging (relative microbubble perfusion), NGP tumors", "conditions": "for increase in mean rmp: BV-treated NGP tumors", "method": "(§2) The identity of the neuroblastoma cell lines NGP and SK-NEP-1 were verified by STR profiling. The cell lines were stably transfected with FUW-Luciferase plasmid and were selected and maintained in 1 mg/ml neomycin. 1×10^6 cells were injected intrarenally into 4-6 week old NCR female nude mice. The resulting xenografts were monitored for growth using bioluminescence. At a threshold corresponding to 1-2 g, tumors were randomized to control or treatment groups (cohort size 5-8 mice per modality and treatment groups). BV (0.5 mg) was administered immediately after imaging on days 0 and 3. Animals were killed by CO2 inhalation at indicated time points (at day 5 after serial imaging studies, and at days 0, 1, 3, and 5 for control and lectin perfusion analyses). At euthanasia, mice were injected with fluorescein-labeled Lycopersicon esculentum lectin (100 μg/100 μl PBS). Vasculature was fixed by infusing 1% paraformaldehyde. 40-μm sections were cut using a vibratome, and digital images subjected to computer-assisted quantitative analysis of tumor vessel architecture.\nSize-selected microbubbles described above were used for perfusion and molecular imaging. Lipid-coated, perfluorobutane-filled microbubbles were produced by mechanical agitation. For targeting, a maleimide group was included on the distal end of the polyethylene glycol group on the lipopolymer used to coat the microbubbles. Residual lipid was removed and 4.5-μm median diameter microbubbles were isolated by centrifugation. Targeted microbubbles were then conjugated to cysteine-tagged RGD (target) or RAD (control) peptides and washed again to remove residual peptide. RGD conjugation was confirmed by HPLC and MALDI-TOF. Ultrasound imaging was performed using a small-animal ultrasound scanner with a 30-MHz transducer.\nMice were anesthetized and placed on a physiological monitoring platform, and their tail veins were catheterized for injections using a 27-gauge, ½-inch butterfly catheter. The transducer was positioned at the tumor midsection, and 2-D ultrasound images were acquired using a field of view of 17×17 mm. A 50-μL bolus (2.5×10^7 microbubbles) followed by a 15-μL saline flush were injected while imaging at the maximum frame rate for respiratory gating (˜11 frames/second) and 100% power. Maximum intensity persistence (MIP) images were acquired using non-targeted RAD-microbubbles. Contrast enhancement was detected using background subtraction from reference videos acquired before the microbubble injection. […] Relative microbubble perfusion (rmp) was defined as the maximum signal enhancement and determined by regression of a monoexponential function to the time-intensity curve during microbubble uptake. […]"}, "NGP tumors [3]": {"tested_on": "NGP tumors", "test": "Ultrasound molecular imaging with RGD-microbubbles (relative targeted microbubble adhesion, αvβ3 integrin), NGP tumors", "conditions": "exponential decay model, days 0-5", "method": "To evaluate vascular response (blood volume, perfusion, and molecular expression), two human cancer cell lines (SK-NEP and NGP) were implanted in nude mice and allowed to develop for five weeks. High-frequency ultrasound imaging of the tumors was performed at 40 MHz using a Visualsonics Vevo 770 during bolus tail-vein injections of size-selected microbubble suspensions. […] The bolus was […] and the concentration was 5×10^8 microbubbles/mL. The change in intensity of the ultrasound signal was used to determine the relative blood volume. Targeted microbubbles bearing cyclic RGD-peptides (or cyclic RAD-peptides for the control microbubbles) were used to measure the level of active angiogenesis. […]\nThe identity of the neuroblastoma cell lines NGP and SK-NEP-1 were verified by STR profiling. […] The resulting xenografts were monitored for growth using bioluminescence. […] 40-μm sections were cut using a vibratome, and digital images subjected to computer-assisted quantitative analysis of tumor vessel architecture. […]\nFor molecular ultrasound imaging, a series of lower frequency pulses was applied to destroy microbubbles in the field of view 10 minutes after microbubble injection. […] The relative targeted microbubble adhesion (rtma) was measured as the difference in the linearized grayscale pixel intensities within the ROI for targeted RGD-microbubbles, minus that for RAD-microbubbles. […]"}, "NGP xenografts": {"tested_on": "NGP xenografts", "test": "Tumor 2-D cross-sectional area by ultrasound, NGP xenografts", "conditions": "NGP tumors, BV vs. control, 5 days", "method": "as §1"}, "NGP tumors [4]": {"tested_on": "NGP tumors", "test": "Fluorescein-labeled lectin perfusion analysis of tumor vasculature, NGP tumors", "conditions": "BV-treated NGP tumors", "method": "as §2, with “At euthanasia, mice were injected with fluorescein-labeled Lycopersicon esculentum lectin (100 μg/100 μl PBS). Vasculature was fixed by infusing 1% paraformaldehyde.” left out\nQuantified changes in lectin perfusion studies of tumor vasculature were consistent with changes detected by CEUS. […]\nComputer-assisted image analysis was used to examine changes in specific vessel features. If vascular area is calculated from total pixels, large-diameter vessels contributed disproportionately to MVD as compared to fine capillaries. To more closely estimate numbers of vessels, total length can be calculated by skeletonizing images and then scoring these by computer. […]"}, "SK-NEP-1 tumors [5]": {"tested_on": "SK-NEP-1 tumors", "test": "CEUS perfusion imaging (relative microbubble perfusion), SK-NEP-1 tumors", "conditions": "SK-NEP-1 cohorts, days 0 to 5, linear mixed-effects model", "method": "as §2, with “At euthanasia, mice were injected with fluorescein-labeled Lycopersicon esculentum lectin (100 μg/100 μl PBS). Vasculature was fixed by infusing 1% paraformaldehyde.” left out, “architecture. […]” for “architecture.”\nMice were anesthetized and placed on a physiological monitoring platform, and their tail veins were catheterized for injections using a 27-gauge, ½-inch butterfly catheter. […] Contrast enhancement was detected using background subtraction from reference videos acquired before the microbubble injection. […] Relative microbubble perfusion (rmp) was defined as the maximum signal enhancement and determined by regression of a monoexponential function to the time-intensity curve during microbubble uptake. […]"}, "SK-NEP-1 tumors [6]": {"tested_on": "SK-NEP-1 tumors", "test": "Fluorescein-labeled lectin perfusion analysis of tumor vasculature, SK-NEP-1 tumors", "method": "as §1\nAfter binarization of the images, microvessel density (MVD) was estimated by the total number of white pixels per field. The results shown in FIGS. 10A-10B are as the mean pixel count per image +SD.\nComputer-assisted image analysis was used to examine changes in specific vessel features. […] To more closely estimate numbers of vessels, total length can be calculated by skeletonizing images and then scoring these by computer. […] New vascular branches can form a dynamic and relatively VEGF-dependent element in angiogenic networks."}, "SK-NEP-1 xenografts": {"tested_on": "SK-NEP-1 xenografts", "test": "Tumor 2-D cross-sectional area by ultrasound, SK-NEP-1 xenografts", "method": "To evaluate vascular response (blood volume, perfusion, and molecular expression), two human cancer cell lines (SK-NEP and NGP) were implanted in nude mice and allowed to develop for five weeks. High-frequency ultrasound imaging of the tumors was performed at 40 MHz using a Visualsonics Vevo 770 during bolus tail-vein injections of size-selected microbubble suspensions. […] The bolus was […] and the concentration was 5×10^8 microbubbles/mL. The change in intensity of the ultrasound signal was used to determine the relative blood volume. Targeted microbubbles bearing cyclic RGD-peptides (or cyclic RAD-peptides for the control microbubbles) were used to measure the level of active angiogenesis. The mice were imaged at 0, 1, 3, and 5 days. Immediately after the imaging sessions on days 0 and 3, 0.2 cc of BV (2.5 mg/mL) was administered to the mice. After day 5, the mice were euthanized, and their tumors excised for ex vivo analysis.\nThe identity of the neuroblastoma cell lines NGP and SK-NEP-1 were verified by STR profiling. […] The resulting xenografts were monitored for growth using bioluminescence. […] 40-μm sections were cut using a vibratome, and digital images subjected to computer-assisted quantitative analysis of tumor vessel architecture.\nXenografts formed in the kidney of NCR nude mice with the human Ewing family tumor cell line SK-NEP-1 are highly sensitive to VEGF blockade therapy, while human neuroblastoma NGP cell lines are much less responsive to VEGF blockade therapy. The intrarenally implanted xenograft tumors were monitored for growth and randomly assigned to biweekly injections of anti-VEGF antibody BV or vehicle. […] To confirm the characterization of responsiveness, 2-D tumor area was measured by ultrasonography, the results of which are shown in FIG. 11.\nThe tumor 2-D cross-sectional area was determined from the ultrasound images using Visualsonics software. Area measurements of the tumor were calculated from the ultrasound images using a ROI that encompassed the hypoechoic region of the kidney (tumor tissue). […]"}}}
{"substance": "bevacizumab [BV]", "values": [{"measurement": "reduction of the difference in image intensity (before/after destruction pulse)", "setting": "SK-NEP-1 tumors [1]; BV-responsive tumors, RGD microbubbles, after 3 days following treatment", "result": "> 95", "unit": "%"}, {"measurement": "decrease in mean rtma", "setting": "SK-NEP-1 tumors [1]; BV-treated SK-NEP-1, by day 5", "result": "99±5", "unit": "%"}, {"measurement": "difference in rtma decay rates, BV-treated vs control", "setting": "SK-NEP-1 tumors [1]; SK-NEP-1, exponential decay model, days 0-5", "result": "statistically different"}, {"measurement": "αvβ3 integrin binding of RGD-bearing microbubbles in the tumor region", "setting": "SK-NEP-1 tumors [1]; treated SK-NEP mice, three days following BV administration", "result": "significant drop"}, {"measurement": "increase in mean rmp", "setting": "NGP tumors [2]; by day 1", "result": "38±21", "unit": "%"}, {"measurement": "increase in mean rmp", "setting": "NGP tumors [2]; by day 3", "result": "57±48", "unit": "%"}, {"measurement": "increase in mean rmp", "setting": "NGP tumors [2]; by day 5", "result": "105±41", "unit": "%"}, {"measurement": "slopes of the linear regression of rmp, BV-treated vs control", "setting": "NGP tumors [2]; NGP cohorts, days 0 to 5, linear mixed-effects model", "result": "no difference"}, {"measurement": "difference in rtma decay rates, BV-treated vs control", "setting": "NGP tumors [3]", "result": "no difference was observed"}, {"measurement": "tumor growth", "setting": "NGP xenografts", "result": "unaffected"}, {"measurement": "microvessel density (MVD) compared to day 0 controls", "setting": "NGP tumors [4]", "result": "did not change"}, {"measurement": "slopes of the linear regression of rmp, BV-treated vs control", "setting": "SK-NEP-1 tumors [5]", "result": "statistically different"}, {"measurement": "decrease in microvessel density (MVD) compared to day 0 controls", "setting": "SK-NEP-1 tumors [6]; BV-treated SK-NEP-1 tumors, day 1", "result": 66, "unit": "%"}, {"measurement": "total vessel length", "setting": "SK-NEP-1 tumors [6]; SK-NEP-1, days 1, 3, 5", "result": "significantly decreased"}, {"measurement": "total vascular branch number", "setting": "SK-NEP-1 tumors [6]; SK-NEP-1, days 3 and 5", "result": "significantly decreased"}, {"measurement": "changes in tumor size", "setting": "SK-NEP-1 xenografts; SK-NEP tumor-bearing mice, 0.2 cc BV (2.5 mg/mL) on days 0 and 3", "result": "no significant changes"}, {"measurement": "change in tumor 2-D cross-sectional area (ultrasound)", "setting": "SK-NEP-1 xenografts; SK-NEP-1 mice, BV 0.5 mg on days 0 and 3, over the 5 day period", "result": "−5", "unit": "%"}, {"measurement": "tumor growth in comparison to control", "setting": "SK-NEP-1 xenografts; SK-NEP-1 xenografts, days 3 and 5", "result": "significantly arrested tumor growth"}]}
